# According to US10807959B2, “WDR5-MLL1 inhibitors and modulators” (Vanderbilt University, priority 2018, dated 2020):
# Molecular target: T1, WDR5 (Homo sapiens (Human), UniProt P61964)
# Assay: Fluorescence polarization anisotropy (FPA) competition assay, displacement of FITC-MLL or 10mer-Thr-FAM peptide
# Assay type: binding
# Settings: Inhibition of WDR5 by FPA assay
# Text: The assay is run in 384-well format and is read on a BioTek Cytation. […] Replicate values are fit to a 4-parameter fit in XLFit to generate a single IC50 value for each compound that is then converted to a Ki value. Experiments are repeated to generate a 2nd, independent Ki value; values from the two experiments are averaged to produce the reported Ki value for the compound.
row,SMILES,Ki [nM]
1,"Cc1nc(F)ccc1-c1cc(Cn2ccnc2)cc(C(=O)NC(C2CC2)C2CC2)c1 [Example 133, 3-((1H-imidazol-1-yl)methyl)-N-(dicyclopropylmethyl)-5-(6-fluoro-2-methylpyridin-3-yl)benzamide]",3.5
2,"Cc1ccnc(C(NC(=O)c2cc(Cn3ccnc3)cc(-c3ccc(F)nc3C)c2)C2CC2)c1 (stereo not shown) [Example 137, 3-((1H-Imidazol-1-yl)methyl)-N-(cyclopropyl(4-methylpyridin-2-yl)methyl)-5-(6-fluoro-2-methylpyridin-3-yl)benzamide]",< 1
3,"Cc1ccnc(C(NC(=O)c2cc(Cn3ccnc3)cc(-c3ccc(F)cc3Cl)n2)C2CC2)c1 (stereo not shown) [Example 150, 4-((1H-Imidazol-1-yl)methyl)-6-(2-chloro-4-fluorophenyl)-N-(cyclopropyl(4-methylpyridin-2-yl)methyl)picolinamide]",1.1
4,"Cc1cccc(CNC(=O)c2cc(Cn3ccnc3)cc(-c3ccc(F)cc3Cl)n2)n1 [Example 151, 4-((1H-Imidazol-1-yl)methyl)-6-(2-chloro-4-fluorophenyl)-N-((6-methylpyridin-2-yl)methyl)picolinamide]",8.7

# Same assay, conditions: Table B2, WDR5 WIN-site binding affinity; values not less than 1 nM (FPA)
row,Ki [nM],SMILES
1,10.7,O=C(NCc1ccc(Cl)c(Cl)c1)c1cc(Cl)cc(CNC2=NCCN2)c1 [Example B8]
2,17.4,O=C(NCc1cc(Cl)cc(Cl)c1)c1cc(Cl)cc(CNC2=NCCN2)c1 [Example B9]
3,54.5,Cc1ccc(CNC(=O)c2cc(Cl)cc(CNC3=NCCN3)c2)cc1Cl [Example B10]
4,46,Cc1cc(C)cc(CNC(=O)c2cc(Cl)cc(CNC3=NCCN3)c2)c1 [Example B11]
5,65.1,CC(NC(=O)c1cc(Cl)cc(CNC2=NCCN2)c1)c1cccc(Cl)c1 (stereo not shown) [Example B12]
6,9.05,O=C(NCc1cc(Cl)ccn1)c1ccc(F)c(CNC2=NCCN2)c1 [Example B16]
7,2.47,O=C(NCc1cc(Cl)cc(Cl)c1)c1ccc(F)c(CNC2=NCCN2)c1 [Example B17]
8,1.81,COc1cc(OC)cc(C(C)NC(=O)c2ccc(F)c(CNC3=NCCN3)c2)c1 (stereo not shown) [Example B18]
9,8.06,COc1ccc(CNC(=O)c2ccc(F)c(CNC3=NCCN3)c2)cc1OC [Example B19]
10,4.6,Cc1ccnc(C(NC(=O)c2ccc(F)c(CNC3=NCCN3)c2)C2CC2)c1 (stereo not shown) [Example B20]
11,1.5,COc1ccnc(CNC(=O)c2ccc(F)c(CNC3=NCCN3)c2)c1 [Example B22]
12,30.3,O=C(NCc1ccc(Cl)cn1)c1ccc(F)c(CNC2=NCCN2)c1 [Example B23]
13,49.8,COc1cc(CN(C)C(=O)c2ccc(F)c(CNC3=NCCN3)c2)cc(OC)c1 [Example B24]
14,74.2,COc1cccc(CNC(=O)c2ccc(F)c(CNC3=NCCN3)c2)n1 [Example B25]
15,3.24,COc1ccc(C(=O)NCc2ccc(F)c(CNC3=NCCN3)c2)cc1Cl [Example B26]
16,7.52,"COc1cc(CNC(=O)c2ccc(OC)c(CNC3=NCCN3)c2)cc(OC)c1 [Example B27, 3-(((4,5-dihydro-1H-imidazol-2-yl)amino)methyl)-N-(3,5-dimethoxybenzyl)-4-methoxybenzamide]"
17,24.9,Cc1ccnc(CNC(=O)c2ccc(F)c(CNC3=NCCN3)c2)c1 [Example B29]
18,8.11,Cc1cc(C)cc(CNC(=O)c2cc(F)c(F)c(CNC3=NCCN3)c2)c1 [Example B31]
19,4.51,COc1ccc(CNC(=O)c2cc(F)c(F)c(CNC3=NCCN3)c2)cc1Cl [Example B32]
20,12,COc1ccnc(CNC(=O)c2cc(F)c(F)c(CNC3=NCCN3)c2)c1 [Example B34]
21,4.22,COc1cc(OC)cc(C(C)NC(=O)c2cc(F)c(F)c(CNC3=NCCN3)c2)c1 (stereo not shown) [Example B35]
22,8.71,COc1cc(CNC(=O)c2cc(CNC3=NCCN3)ccc2F)cc(OC)c1 [Example B37]

row,Ki [nM],SMILES
1,24.5,COc1cc(CNC(=O)c2ccc(OC)c(CNC3=NCCN3)c2)ccc1Cl [Example B38]
2,1.39,COc1ccc(C(=O)NCc2cc(Cl)ccn2)cc1CNC1=NCCN1 [Example B39]
3,7.21,COc1ccnc(CNC(=O)c2ccc(OC)c(CNC3=NCCN3)c2)c1 [Example B40]
4,1.76,COc1ccc(C(=O)NCc2ccc(Cl)c(F)c2)cc1CNC1=NCCN1 [Example B41]
5,1.51,COc1ccc(C(=O)NCc2ccc(Cl)c(C)c2)cc1CNC1=NCCN1 [Example B42]
6,1.82,COc1cc(OC)cc(C(C)NC(=O)c2ccc(OC)c(CNC3=NCCN3)c2)c1 (stereo not shown) [Example B43]
7,20.3,COc1ccc(C(=O)NCc2ccc(Cl)cn2)cc1CNC1=NCCN1 [Example B44]
8,11.3,Cc1cc(C)nc(CNC(=O)c2ccc(F)c(CNC3=NCCN3)c2)n1 [Example B45]
9,3.96,Cc1cnc(CNC(=O)c2ccc(F)c(CNC3=NCCN3)c2)cn1 [Example B46]
10,2.17,Cc1ccnc(C(NC(=O)c2cc(CNC3=NCCN3)c(F)cc2F)C2CC2)c1 (stereo not shown) [Example B48]
11,1.06,COc1cc(OC)cc(C(C)NC(=O)c2cc(CNC3=NCCN3)c(F)cc2F)c1 (stereo not shown) [Example B49]
12,12.4,CCOc1ccc(C(=O)NC(c2cc(C)ccn2)C2CC2)cc1CNC1=NCCN1 (stereo not shown) [Example B50]
13,9.77,"CCOc1ccc(C(=O)NC(C)c2cc(OC)cc(OC)c2)cc1CNC1=NCCN1 (stereo not shown) [Example B51, 3-(((4,5-dihydro-1H-imidazol-2-yl)amino)methyl)-N-(1-(3,5-dimethoxyphenyl)ethyl)-4-ethoxybenzamides]"
14,33,"COc1cc(OC)cc(C(C)NC(=O)c2ccc(OC(C)C)c(CNC3=NCCN3)c2)c1 (stereo not shown) [Example B52, 3-(((4,5-dihydro-1H-imidazol-2-yl)amino)methyl)-N-(1-(3,5-dimethoxyphenyl)ethyl)-4-isopropoxybenzamide]"
15,40.9,CC(C)Oc1ccc(C(=O)NCc2ccc(Cl)c(Cl)c2)cc1CNC1=NCCN1 [Example B53]
16,1.12,O=C(NCc1ccc(Cl)c(Cl)c1)c1cc(CNC2=NCCN2)cc(-c2ccc(F)cc2Cl)c1 [Example B54]
17,1.27,Cc1cc(C)cc(CNC(=O)c2cc(CNC3=NCCN3)cc(-c3ccc(F)cc3Cl)c2)c1 [Example B55]
18,2.06,Cc1cc(CNC(=O)c2cc(CNC3=NCCN3)cc(-c3ccc(F)cc3Cl)c2)ccc1Cl [Example B58]
19,4.39,Cc1ccncc1-c1cc(CNC2=NCCN2)cc(C(=O)NCc2cccc(F)n2)c1 [Example B89]
20,6.1,Cc1cc(-c2cc(CNC3=NCCN3)cc(C(=O)NCc3cccc(F)n3)c2)ccn1 [Example B95]
21,> 33,COc1cc(OC)cc(C(C)NC(=O)c2ccc(OC(C)C)c(CNC3=NCCC3)c2)c1 (stereo not shown) [Example B124]
22,> 33,CC(C)Oc1ccc(C(=O)NCc2ccc(Cl)c(Cl)c2)cc1CNC1=NCCC1 [Example B125]

# Same assay, conditions: Table C2, WDR5 WIN-site binding affinity; values not less than 1 nM (FPA)
row,Ki [nM],SMILES
1,30.3,"COc1cc(OC)cc(C(C)NC(=O)c2cc(CNC3=NCCN3)ccn2)c1 (stereo not shown) [Example C20, 4-(((4,5-dihydro-1H-imidazol-2-yl)amino)methyl)-N-(1-(3,5-dimethoxyphenyl)ethyl)picolinamide]"
2,33,"COc1cc(OC)cc(C(C)NC(=O)c2cc(CNC3=NCCC3)ccn2)c1 (stereo not shown) [Example C21, 4-(((3,4-dihydro-2H-pyrrol-5-yl)amino)methyl)-N-(1-(3,5-dimethoxyphenyl)ethyl)picolinamide]"
3,3.13,Cc1cc(CNC(=O)c2cc(CNC3=NCCC3)cc(-c3ccc(F)cc3C)n2)ccc1Cl [Example C23]
4,11.7,COc1cc(CNC(=O)c2cc(CNC3=NCCC3)cc(-c3ccc(F)cc3C)n2)cc(OC)c1 [Example C24]
5,1.58,COc1cc(CNC(=O)c2cc(CNC3=NCCC3)cc(-c3ccc(F)cc3C(F)(F)F)n2)cc(OC)c1 [Example C27]
6,1.54,Cc1cnc(C(C)NC(=O)c2cc(CNC3=NCCC3)cc(-c3ccc(F)cc3C(F)(F)F)n2)cc1Cl (stereo not shown) [Example C32]
7,32.5,"COc1cc(OC)cc(C(C)NC(=O)c2ccnc(CNC3=NCCN3)c2)c1 (stereo not shown) [Example C34, 2-(((4,5-dihydro-1H-imidazol-2-yl)amino)methyl)-N-(1-(3,5-dimethoxyphenyl)ethyl)isonicotinamide]"
8,44.1,"COc1cc(OC)cc(C(C)NC(=O)c2ccnc(CNC3=NCCC3)c2)c1 (stereo not shown) [Example C35, 2-(((3,4-dihydro-2H-pyrrol-5-yl)amino)methyl)-N-(1-(3,5-dimethoxyphenyl)ethyl)isonicotinamide]"

# Molecular target: T1, WDR5
# Assay: TR-FRET binding assay, displacement of 10mer-Thr-FAM probe from His-tagged WDR5
# Settings: Inhibition of WDR5 by TR-FRET assay
# Protocol: The LanthaScreenTM Elite Tb-anti-HIS Antibody from ThermoFisher Scientific was used for this purpose. […] The ratio of the 520 and 495 signals are then utilized to generate a dose-response curve to calculate an IC50 value. […] WDR[…] tag protein is used at 2 nM.
row,SMILES,Ki [nM]
1,"Cc1nc(F)ccc1-c1cc(Cn2ccnc2)cc(C(=O)NC(C2CC2)C2CC2)c1 [Example 133, 3-((1H-imidazol-1-yl)methyl)-N-(dicyclopropylmethyl)-5-(6-fluoro-2-methylpyridin-3-yl)benzamide]",4.6
2,"Cc1ccnc(C(NC(=O)c2cc(Cn3ccnc3)cc(-c3ccc(F)nc3C)c2)C2CC2)c1 (stereo not shown) [Example 137, 3-((1H-Imidazol-1-yl)methyl)-N-(cyclopropyl(4-methylpyridin-2-yl)methyl)-5-(6-fluoro-2-methylpyridin-3-yl)benzamide]",2
3,"Cc1ccnc(C(NC(=O)c2cc(Cn3ccnc3)cc(-c3ccc(F)cc3Cl)n2)C2CC2)c1 (stereo not shown) [Example 150, 4-((1H-Imidazol-1-yl)methyl)-6-(2-chloro-4-fluorophenyl)-N-(cyclopropyl(4-methylpyridin-2-yl)methyl)picolinamide]",5.71
4,"Cc1cccc(CNC(=O)c2cc(Cn3ccnc3)cc(-c3ccc(F)cc3Cl)n2)n1 [Example 151, 4-((1H-Imidazol-1-yl)methyl)-6-(2-chloro-4-fluorophenyl)-N-((6-methylpyridin-2-yl)methyl)picolinamide]",32

# Tested on: MV4:11 cells
# Assay: Cellular viability / anti-proliferative activity, CellTiter-Glo, 7 day protocol
# Assay type: cell-based, human
# Settings: 168 h; cellular proliferation of MV4:11 human cancer cell lines, 7 day
# Protocol: Anti proliferative activity using MLL-harboring cell lines. MV4:11 cells are grown in RPMI-1640 media supplemented with 10% FBS and 1% penicillin/streptomycin. Viability assays are performed by dispensing […] into each well of an opaque 384-well plate and adding compounds at the indicated concentrations in a final volume of 32 μL and a final concentration of DMSO of 0.1% for all samples. After a set incubation period, 7 day protocol, the viability of cells in each well is assessed using the CellTiter-Glo assay (Promega), read on a GloMax 96 Microplane Luminometer (Promega). Serial dilutions of each cell type are included in all assays to generate standard curves and determine assay measurements are taken within the dynamic range of the instrument. GI50 values are calculated based on three biological replicates, each with three technical replicates. Data are expressed as mean plus/minus S.E.M.
row,GI50 [nM],SMILES
1,280,"Cc1cc(CNC(=O)c2cc(CNC3=NCCC3)cc(-c3ccc(F)cc3C)c2)ccc1Cl [Example 64, N-(4-Chloro-3-methylbenzyl)-5-(((3,4-dihydro-2H-pyrrol-5-yl)amino)methyl)-4′-fluoro-2′-methyl-[1,1′-biphenyl]-3-carboxamide]"
